Series [1] concerns MCF-7 cells. Put plainly: MTT cytotoxicity assay, MCF-7. The format is cell-based, human. On the procedure:
(§1) The cytotoxic effects of the compounds were evaluated by the MTT [3-(4,5-dimethylthiazol-2-yl)-2,5-diphenyltetrazolium bromide] assay. The cells (50,000 cells/mL) were treated with various concentrations of the compounds (0.94–30 μM) in a 96-well plate for 72 h. Untreated controls were also included. Following incubation, 20 μL of 5 mg/mL MTT solution was added to each well and incubated at 37 °C for 3 h. Next, 100 μL of DMSO was added to dissolve the purple precipitate of formazan crystal. The absorbance at 570 nm and 630 nm as reference wavelength was measured by a microplate reader (BioTek EL 800, United States).
(§2) Cell growth inhibition (%) = [1 - (ODTreated/OD Control)] × 100.

For series [2], the system named is mouse embryonic fibroblast NIH/3 T3 cells. Briefly: MTT cytotoxicity assay, NIH/3T3. The format is cell-based. The conditions noted are these: 3T3, 72 h. The protocol:
as §1, §2

For the next series, the system named is HT-29 cells. Put plainly: MTT cytotoxicity assay, HT-29. It counts as cell-based, human. The conditions noted are these: HT-29, 72 h. The protocol:
as §1, §2
(Formazan colour is commonly taken as a measure of viable cells.)

In series [3] the test system is MDA-MB-231 cells. Put plainly: MTT cytotoxicity assay, MDA-MB-231. The format is cell-based, human. The settings on record: for IC50: MTT. On the procedure:
The cytotoxic effects of the compounds were evaluated by the MTT [3-(4,5-dimethylthiazol-2-yl)-2,5-diphenyltetrazolium bromide] assay. […] Untreated controls were also included. Following incubation, 20 μL of 5 mg/mL MTT solution was added to each well and incubated at 37 °C for 3 h. Next, 100 μL of DMSO was added to dissolve the purple precipitate of formazan crystal. The absorbance at 570 nm and 630 nm as reference wavelength was measured by a microplate reader (BioTek EL 800, United States).
as §2

A further series has as its system HeLa cells. Briefly: MTT cytotoxicity assay, HeLa. It counts as cell-based, human. The settings on record: 72 h. The protocol: as §1, §2
The subject of another series is A-549 cells. Put plainly: MTT cytotoxicity assay, A-549. The format is cell-based, human. The conditions noted are these: A-549, 72 h. The protocol:
as §1, §2

For series [4], the system named is MCF-10A normal breast epithelial cells. Put plainly: MTT cytotoxicity assay, MCF10A. It counts as cell-based, human. The settings on record: 72 h. The protocol: as §1, §2
Series [5] concerns MDA-MB-231 cells. Put plainly: Morphological changes under inverted light microscope. It counts as cell-based, human. On the procedure: Briefly, 150,000 cells per well of MDA-MB-231 cells were seeded in a 6-well plate and incubated for 24 h. Next, the cells were treated with ampelopsin E (7.5–30 μM) and further incubated for 72 h. The untreated cells were included as a control. The image was captured at 0, 24, 48 and 72 h at the same spot under an inverted microscope (Olympus, Japan).

Series [6] concerns MDA-MB-231 cells. Briefly: Cell cycle analysis by flow cytometer. It counts as cell-based, human. The settings on record: 15 and 30 μM; 24, 48 and 72 h; p < 0.05. On the procedure:
MDA-MB-231 cells were seeded at 800,000 cells per 75 cm^2 flask. Next, the cells were treated with ampelopsin E (7.5–30 μM). The untreated cells were also included as a control. The cells were incubated for 24, 48 and 72 h. Next, the cells were trypsinized, washed twice with ice cold PBS and collected. The cell pellet was fixed with ice-cold 70 % ethanol and stored at −20 °C. After a week, the cells were washed once again with ice-cold PBS. The cell pellet was mixed up with 250 μL Guava cell cycle reagents (EMD, Milliport Corporation, Hayward) and 300 μL PBS. The population of cells in each phase was measured by a flow cytometer (FACSCalibur, Becton Dickinson, USA). The results were analysed by using ModFit LT™ software.
(In general: Flow cytometry measures light scatter and fluorescence of single cells or particles in a stream.)

Series [7] concerns MDA-MB-231 cells. Put plainly: Annexin V/PI flow cytometric analysis of mode of cell death. The format is cell-based, human. The conditions noted are these: for percentage of viable cells, lower left quadrant (Annexin-V-/PI-): 24 h; for percentage of early apoptotic cells, lower right quadrant (Annexin-V+/PI-): 72 h. On the procedure:
Human Annexin V/PI Apoptosis Detection Kit I (BD Biosciences Pharmingen, Franklin Lakes, NJ, USA) was used to determine the mode of cell death induced by ampelopsin E. Briefly, the MDA-MB-231 cells were seeded at 150,000 cells per well in a 6-well plate. Next, the cells were treated with ampelopsin E (7.5–30 μM). The untreated cells were also included as a control. The cells were harvested and washed with 2 mL of ice-cold PBS. Subsequently, the samples were mixed with 100 μL of […] binding buffer on ice. Next, in the dark, 5 μL annexin V and 5 μL of propidium iodide (1 mg/mL) were added with 15 min of incubation on ice. Next, 400 μL of […] binding buffer was added to dilute the samples. The cells were analyzed by using FACS Calibur flow cytometer (Becton Dickinson, USA). The results were analysed by using FlowJo version 8.6 (Treestar Inc., San Carlos, CA).

Series [8] relates to MCF-7 cells. The arrangement: method as in Wibowo et al. [34]. The conditions noted are these: MCF-7, ampelopsin E from Dryobalanops beccarii; ref Wibowo et al. [34]; cited from earlier work.

Read-outs that look alike come from different tables or passages of the source.

Turning to `Oc1ccc([C@@H]2c3c(O)cc(O)cc3[C@@H]3c4c(O)cc(O)cc4[C@H]2[C@H]3c2ccc(O)cc2)cc1` [Ampelopsin F, ampelopsin F], the IC50 (as a rule, the concentration at which inhibition is half-maximal) in the series on MCF-7 cells [1] (MCF-7, 72 h) was > 30 µM; in series [2], > 30 µM; in the series on HT-29 cells, > 30 µM; in the series on MDA-MB-231 cells [3] (MDA-MB-231, 72 h), > 30 µM; in the series on HeLa cells, > 30 µM; in the series on A-549 cells, > 30 µM.

`COc1cccc2c1C(=O)c1c(O)c3c(c(O)c1C2=O)C[C@@](O)(C(=O)CO)C[C@@H]3O[C@H]1C[C@H](N)[C@H](O)[C@H](C)O1` [Doxorubicin, reference compound]: the IC50 is 0.21 ± 0.27 µM in the series on MCF-7 cells [1] (Homo sapiens, MCF7, MCF-7, 72 h); 0.4 µM in the series on MDA-MB-231 cells [3] (Homo sapiens, MDA-MB-231, 72 h); > 10 µM in series [4] (Homo sapiens, MCF-10A).

Take `Oc1ccc(/C=C/c2c3c(cc4c2[C@@H](c2cc(O)cc(O)c2)[C@H](c2ccc(O)cc2)O4)O[C@H](c2ccc(O)cc2)[C@H]3c2cc(O)cc3c2[C@@H](c2cc(O)cc(O)c2)[C@H](c2ccc(O)cc2)O3)cc1` [Flexuosol A, flexuosol A]: the IC50 in the series with MCF-7 cells [1] (MCF-7, 72 h) was > 30 µM; in [2], > 30 µM; in the series on HT-29 cells, > 30 µM; in the series with MDA-MB-231 cells [3] (MDA-MB-231, 72 h), 27.5 ± 3.54 µM; in series [4], > 30 µM; in the series with HeLa cells, > 30 µM. The IC50 in the series on A-549 cells is > 30 µM.

On to `O=C1O[C@@H]2[C@H](O)COC23O[C@@H](c2ccc(O)cc2)[C@H](c2cc(O)cc4c2[C@@H](c2cc(O)cc(O)c2)[C@H](c2ccc(O)cc2)O4)[C@@]13O` (stereo partly drawn) [Laevifonol, laevifonol], for which the concentration for half-maximal inhibition (IC50) in the series with MCF-7 cells [1] (MCF-7, 72 h) was > 30 µM; in series [2], > 30 µM; with HT-29 cells it was > 30 µM; in the series with MDA-MB-231 cells [3] (MDA-MB-231, 72 h) it was > 30 µM; in the series on HeLa cells, > 30 µM; with A-549 cells, > 30 µM.

Consider `Oc1ccc(/C=C\c2c3c(cc4c2[C@@H](c2cc(O)cc(O)c2)[C@@H](c2ccc(O)cc2)O4)O[C@H](c2ccc(O)cc2)[C@@H]3c2cc(O)cc(O)c2)cc1` [Malaysianol D], for which the IC50 was > 30 µM in the series on MCF-7 cells [1] (MCF-7, 72 h); > 30 µM in the series with MDA-MB-231 cells [3] (MDA-MB-231, 72 h); > 30 µM in [4].

Regarding Malaysianol A, the IC50 is > 30 µM in the series with MCF-7 cells [1] (MCF-7, 72 h); 23 ± 4.24 µM with MDA-MB-231 cells [3] (MDA-MB-231, 72 h); > 30 µM in series [4].

As to ampelopsin E, the IC50 is 29.5 ± 0.71 µM with MCF-7 cells [1] (MCF-7, 72 h); > 30 µM in series [2]; > 30 µM in the series with HT-29 cells; 30 ± 0.13 µM in the series on MDA-MB-231 cells [3] (MDA-MB-231, 24 h); 16 ± 2.01 µM in the series on MDA-MB-231 cells [3] (MDA-MB-231, 48 h); 14.5 ± 0.71 µM with MDA-MB-231 cells [3] (MDA-MB-231, 72 h). In addition, the IC50 in the series on MDA-MB-231 cells [3] (MDA-MB-231, 72 h, listed as ampelopsin E) is < 15 µM; with MCF-7 cells [8], 21 µM; in series [4] it was > 30 µM; with HeLa cells it was > 30 µM; with A-549 cells it was > 30 µM. The morphological changes entry in the series on MDA-MB-231 cells [5] (7.5 μM) is “membrane blebbing”; in the series with MDA-MB-231 cells [5] (15 μM), “cell shrinkage”; in the series on MDA-MB-231 cells [5] (30 μM, 48 and 72 h), “Cell detachment, cell shrinkage and formation apoptotic bodies”. Also, the cell cycle arrest entry in the series with MDA-MB-231 cells [6] was “increase in G2/M population”. In addition, in the series on MDA-MB-231 cells [3] (15–30 μM, p < 0.05), the cell viability result is “significant reduction”. The “percentage of viable cells, lower left quadrant (Annexin-V-/PI-)” value is 75.3% with MDA-MB-231 cells [7] (7.5 μM), 69.0% in the series with MDA-MB-231 cells [7] (15 μM) and 57.1% in the series with MDA-MB-231 cells [7] (30 μM). In addition, the entries for the “percentage of early apoptotic cells, lower right quadrant (Annexin-V+/PI-)” value in the series on MDA-MB-231 cells [7] (7.5 μM), in the series with MDA-MB-231 cells [7] (15 μM) and in the series on MDA-MB-231 cells [7] (30 μM) were 12.9%, 23.6% and 33.9%, respectively. Further, in the series on MDA-MB-231 cells [7] (7.5-30 μM), the “mode of cell death” value was “induced apoptosis”.

Take nepalensinol E: the IC50 is > 30 µM with MCF-7 cells [1] (MCF-7, 72 h); > 30 µM in series [2]; > 30 µM with HT-29 cells; > 30 µM in the series on MDA-MB-231 cells [3] (MDA-MB-231, 72 h); > 30 µM with HeLa cells; > 30 µM with A-549 cells.

The values above are taken from article PMC5017001, “Induction of apoptosis and G2/M arrest by ampelopsin E from Dryobalanops towards triple negative breast cancer cells, MDA-MB-231” (BMC Complementary and Alternative Medicine, 2016).
